From ChEMBL document CHEMBL1201862, “PubChem BioAssay data set” (2004)
Values belong to the compound of their own block, whether it stands above or below them. Active and inactive are the calls of the source.

Legend:
[1] = biological target: Guanyl-specific ribonuclease T1 (Aspergillus oryzae (strain ATCC 42149 / RIB 40), UniProt P00651); test: inhibition of ribonuclease T1 activity – biochemical, fluorescence polarization, 1536-well, counter-screen for TPT1 inhibitor project, dose response (AID 2167)
Sequence of Guanyl-specific ribonuclease T1 (P00651 whole entry): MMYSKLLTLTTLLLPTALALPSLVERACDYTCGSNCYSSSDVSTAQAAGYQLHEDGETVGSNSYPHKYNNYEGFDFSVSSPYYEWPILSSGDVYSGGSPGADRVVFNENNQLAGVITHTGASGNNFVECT

[2] = biological target: T1, Voltage-gated N-type calcium channel alpha-1B subunit/Amyloid beta A4 precursor protein-binding family A member 1 (Homo sapiens, UniProt Q00975+Q02410); assay type: protein assay
T1 sequence (Q00975 whole entry): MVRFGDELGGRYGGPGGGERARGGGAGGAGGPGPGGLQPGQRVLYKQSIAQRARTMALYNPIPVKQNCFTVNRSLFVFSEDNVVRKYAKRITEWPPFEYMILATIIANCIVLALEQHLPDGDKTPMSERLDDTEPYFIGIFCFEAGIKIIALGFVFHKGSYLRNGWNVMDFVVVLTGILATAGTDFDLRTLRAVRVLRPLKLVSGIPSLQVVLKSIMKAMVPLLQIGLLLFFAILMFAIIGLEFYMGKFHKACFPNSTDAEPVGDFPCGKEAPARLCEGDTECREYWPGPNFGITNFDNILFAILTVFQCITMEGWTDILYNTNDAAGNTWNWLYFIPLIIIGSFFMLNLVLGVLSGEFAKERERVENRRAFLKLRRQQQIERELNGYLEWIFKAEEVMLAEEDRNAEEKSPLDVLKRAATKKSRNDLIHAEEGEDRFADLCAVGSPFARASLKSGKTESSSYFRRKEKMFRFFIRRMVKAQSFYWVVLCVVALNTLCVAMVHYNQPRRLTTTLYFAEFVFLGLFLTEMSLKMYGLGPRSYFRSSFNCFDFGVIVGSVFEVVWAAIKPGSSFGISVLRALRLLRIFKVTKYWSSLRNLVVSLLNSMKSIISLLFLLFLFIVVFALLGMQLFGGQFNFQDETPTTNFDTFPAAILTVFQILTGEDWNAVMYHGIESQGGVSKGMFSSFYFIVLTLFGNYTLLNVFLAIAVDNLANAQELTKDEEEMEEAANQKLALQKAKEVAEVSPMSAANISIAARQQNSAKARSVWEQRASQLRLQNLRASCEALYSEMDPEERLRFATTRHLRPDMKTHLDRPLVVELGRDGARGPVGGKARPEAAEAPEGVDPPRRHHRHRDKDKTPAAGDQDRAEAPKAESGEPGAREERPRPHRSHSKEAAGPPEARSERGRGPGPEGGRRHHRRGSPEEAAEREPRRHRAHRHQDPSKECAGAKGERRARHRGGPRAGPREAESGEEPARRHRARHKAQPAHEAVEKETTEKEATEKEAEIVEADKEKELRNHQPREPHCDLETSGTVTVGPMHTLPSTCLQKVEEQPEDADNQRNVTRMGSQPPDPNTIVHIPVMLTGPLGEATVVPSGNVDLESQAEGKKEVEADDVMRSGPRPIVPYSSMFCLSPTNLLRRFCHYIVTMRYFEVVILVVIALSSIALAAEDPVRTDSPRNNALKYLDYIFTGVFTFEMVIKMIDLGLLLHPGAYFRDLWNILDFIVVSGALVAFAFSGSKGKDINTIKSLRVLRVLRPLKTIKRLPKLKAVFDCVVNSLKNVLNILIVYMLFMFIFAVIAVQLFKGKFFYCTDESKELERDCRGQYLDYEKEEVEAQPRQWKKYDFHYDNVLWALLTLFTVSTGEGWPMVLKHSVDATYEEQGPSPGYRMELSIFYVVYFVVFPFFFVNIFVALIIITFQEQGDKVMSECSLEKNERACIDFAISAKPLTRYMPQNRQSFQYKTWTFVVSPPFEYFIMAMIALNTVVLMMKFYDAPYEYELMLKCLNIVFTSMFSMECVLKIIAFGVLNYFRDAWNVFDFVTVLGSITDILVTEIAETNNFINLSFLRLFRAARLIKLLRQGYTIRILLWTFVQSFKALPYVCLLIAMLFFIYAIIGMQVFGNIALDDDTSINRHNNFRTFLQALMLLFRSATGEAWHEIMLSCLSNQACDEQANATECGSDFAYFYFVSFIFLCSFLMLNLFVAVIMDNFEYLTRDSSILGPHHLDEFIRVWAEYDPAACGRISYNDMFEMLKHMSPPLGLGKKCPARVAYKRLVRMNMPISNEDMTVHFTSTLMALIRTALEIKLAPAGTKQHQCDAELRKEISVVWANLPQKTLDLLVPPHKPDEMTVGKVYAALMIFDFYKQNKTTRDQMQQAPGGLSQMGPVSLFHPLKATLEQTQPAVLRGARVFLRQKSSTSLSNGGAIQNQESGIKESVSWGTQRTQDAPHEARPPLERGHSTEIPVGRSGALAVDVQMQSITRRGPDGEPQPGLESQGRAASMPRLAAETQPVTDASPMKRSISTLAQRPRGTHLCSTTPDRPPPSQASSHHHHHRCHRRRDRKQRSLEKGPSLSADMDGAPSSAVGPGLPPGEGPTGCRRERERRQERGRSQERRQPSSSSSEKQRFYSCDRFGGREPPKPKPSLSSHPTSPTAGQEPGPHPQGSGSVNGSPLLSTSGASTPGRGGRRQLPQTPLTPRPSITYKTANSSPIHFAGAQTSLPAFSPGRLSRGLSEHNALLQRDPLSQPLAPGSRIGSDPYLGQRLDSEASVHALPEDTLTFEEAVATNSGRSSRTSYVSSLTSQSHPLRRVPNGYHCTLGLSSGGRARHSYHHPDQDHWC
T1 sequence (Q02410 whole entry): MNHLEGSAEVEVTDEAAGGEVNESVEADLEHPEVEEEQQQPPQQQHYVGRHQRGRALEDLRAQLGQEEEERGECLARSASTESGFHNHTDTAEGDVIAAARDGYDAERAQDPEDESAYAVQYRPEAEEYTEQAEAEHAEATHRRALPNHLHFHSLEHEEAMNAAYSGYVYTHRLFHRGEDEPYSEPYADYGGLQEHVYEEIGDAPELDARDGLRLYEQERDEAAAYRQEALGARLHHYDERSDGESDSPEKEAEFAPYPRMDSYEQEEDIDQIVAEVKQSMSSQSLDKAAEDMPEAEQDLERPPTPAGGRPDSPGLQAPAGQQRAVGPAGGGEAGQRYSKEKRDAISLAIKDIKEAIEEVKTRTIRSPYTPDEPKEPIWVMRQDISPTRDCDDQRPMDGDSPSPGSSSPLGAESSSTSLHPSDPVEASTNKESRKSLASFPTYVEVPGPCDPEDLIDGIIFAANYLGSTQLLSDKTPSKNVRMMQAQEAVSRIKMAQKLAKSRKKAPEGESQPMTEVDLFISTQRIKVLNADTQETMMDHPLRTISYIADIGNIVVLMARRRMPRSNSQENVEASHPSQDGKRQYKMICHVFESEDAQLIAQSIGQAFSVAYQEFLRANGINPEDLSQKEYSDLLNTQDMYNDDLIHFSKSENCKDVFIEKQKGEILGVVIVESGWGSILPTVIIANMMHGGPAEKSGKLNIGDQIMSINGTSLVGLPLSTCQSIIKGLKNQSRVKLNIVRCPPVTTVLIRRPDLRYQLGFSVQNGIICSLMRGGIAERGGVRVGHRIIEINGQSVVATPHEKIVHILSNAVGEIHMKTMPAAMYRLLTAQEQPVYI

Large T antigen = Large T antigen (Simian virus 40, UniProt P03070); assay type: functional, Betapolyomavirus macacae;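 further: Confirmatory-stage PubChem screen for compounds that inhibit SV40 T antigen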
[3] = biological target: Likely tRNA 2'-phosphotransferase (Candida albicans (strain SC5314 / ATCC MYA-2876) (Yeast), UniProt Q5A7N4); test: inhibition of Candida TPT1 enzyme activity – biochemical, fluorescence polarization, dose response (AID 2160)
[4] = biological target: T1, Voltage-gated N-type calcium channel alpha-1B subunit/Amyloid beta A4 precursor protein-binding family A member 1; assay type: protein assay; remark: listed apart in the source
Cytochrome P450 2D6 = Cytochrome P450 2D6 (Homo sapiens, UniProt P10635); test: qHTS Assay for Inhibitors and Substrates of Cytochrome P450 2D6. [Related pubchem assays: 410 ]; assay type: ADME; settings: read-out: Potency
[5] = biological target: Lysosomal acid glucosylceramidase (Homo sapiens, UniProt P04062); test: Dose response cell-based high throughput screening assay to identify enhancers of beta-glucosidase activity. [Related pubchem assays: 784 ]; assay type: functional
Sequence of Lysosomal acid glucosylceramidase (P04062 whole entry): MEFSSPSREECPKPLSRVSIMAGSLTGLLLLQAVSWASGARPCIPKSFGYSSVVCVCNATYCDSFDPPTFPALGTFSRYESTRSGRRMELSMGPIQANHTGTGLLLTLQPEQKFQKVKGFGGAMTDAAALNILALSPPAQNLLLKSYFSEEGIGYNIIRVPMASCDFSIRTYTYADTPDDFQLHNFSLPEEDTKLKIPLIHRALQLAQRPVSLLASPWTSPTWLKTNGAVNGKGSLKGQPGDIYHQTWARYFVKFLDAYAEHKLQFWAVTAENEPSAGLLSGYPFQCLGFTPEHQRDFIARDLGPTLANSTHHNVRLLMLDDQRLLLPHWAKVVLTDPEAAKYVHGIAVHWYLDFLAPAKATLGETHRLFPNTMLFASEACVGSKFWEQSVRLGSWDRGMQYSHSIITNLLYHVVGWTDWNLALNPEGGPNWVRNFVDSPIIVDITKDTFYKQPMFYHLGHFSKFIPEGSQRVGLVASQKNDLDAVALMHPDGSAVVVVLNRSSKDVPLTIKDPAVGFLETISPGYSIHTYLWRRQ

[6] = biological target: T2, Histone-lysine N-methyltransferase NSD2 (Homo sapiens, UniProt O96028); assay type: biochemical
T2 sequence (O96028 whole entry): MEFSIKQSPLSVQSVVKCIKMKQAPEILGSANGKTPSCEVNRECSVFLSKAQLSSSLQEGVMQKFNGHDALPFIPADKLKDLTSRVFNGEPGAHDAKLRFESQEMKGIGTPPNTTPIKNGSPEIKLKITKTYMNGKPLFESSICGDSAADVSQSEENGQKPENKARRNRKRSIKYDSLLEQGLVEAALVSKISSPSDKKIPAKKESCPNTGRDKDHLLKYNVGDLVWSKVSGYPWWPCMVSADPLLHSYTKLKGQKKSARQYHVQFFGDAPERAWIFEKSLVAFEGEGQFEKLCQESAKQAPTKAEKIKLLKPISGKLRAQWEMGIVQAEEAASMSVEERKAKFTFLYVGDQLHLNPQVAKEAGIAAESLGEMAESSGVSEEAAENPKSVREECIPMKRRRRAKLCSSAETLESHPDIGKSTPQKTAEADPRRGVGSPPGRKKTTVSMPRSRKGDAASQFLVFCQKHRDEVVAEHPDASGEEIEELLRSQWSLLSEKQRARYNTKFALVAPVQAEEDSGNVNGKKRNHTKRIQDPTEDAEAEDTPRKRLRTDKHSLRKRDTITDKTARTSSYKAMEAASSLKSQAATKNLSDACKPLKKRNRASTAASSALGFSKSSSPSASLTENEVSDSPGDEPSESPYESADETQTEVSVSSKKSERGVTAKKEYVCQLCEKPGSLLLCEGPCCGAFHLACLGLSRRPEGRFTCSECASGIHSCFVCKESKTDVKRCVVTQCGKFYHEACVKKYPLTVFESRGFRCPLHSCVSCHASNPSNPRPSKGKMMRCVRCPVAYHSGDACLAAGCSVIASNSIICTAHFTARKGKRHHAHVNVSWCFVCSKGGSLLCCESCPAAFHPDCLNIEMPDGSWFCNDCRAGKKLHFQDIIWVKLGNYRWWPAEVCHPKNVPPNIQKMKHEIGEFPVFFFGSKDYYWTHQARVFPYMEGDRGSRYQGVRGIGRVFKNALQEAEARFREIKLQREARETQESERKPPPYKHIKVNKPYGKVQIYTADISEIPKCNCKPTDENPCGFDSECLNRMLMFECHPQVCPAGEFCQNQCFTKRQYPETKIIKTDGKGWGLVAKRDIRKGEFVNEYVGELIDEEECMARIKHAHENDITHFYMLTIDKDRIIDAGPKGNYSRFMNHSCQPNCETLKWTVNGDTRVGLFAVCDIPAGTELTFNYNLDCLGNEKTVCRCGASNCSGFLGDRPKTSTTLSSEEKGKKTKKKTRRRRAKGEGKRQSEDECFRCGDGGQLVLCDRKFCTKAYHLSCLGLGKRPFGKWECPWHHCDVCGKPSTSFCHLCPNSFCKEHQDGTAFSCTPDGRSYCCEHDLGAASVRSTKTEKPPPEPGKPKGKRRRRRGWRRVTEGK

[7] = biological target: Photoreceptor-specific nuclear receptor (Homo sapiens, UniProt Q9Y5X4); assay type: functional;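 further: potency for compounds that break the NR2E3 corepressor complex and count as activators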
[8] = biological target: Peroxisome proliferator-activated receptor gamma/Nuclear receptor corepressor 2 (Homo sapiens, UniProt P37231+Q9Y618); assay type: functional
[9] = biological target: T3, Eukaryotic translation initiation factor 2-alpha kinase 3 (Homo sapiens, UniProt Q9NZJ5); test: Dose response cell-based high-throughput screening assay to measure PERK inhibition. [Related pubchem assays: 1416 ]; assay type: functional
T3 sequence (Q9NZJ5 whole entry): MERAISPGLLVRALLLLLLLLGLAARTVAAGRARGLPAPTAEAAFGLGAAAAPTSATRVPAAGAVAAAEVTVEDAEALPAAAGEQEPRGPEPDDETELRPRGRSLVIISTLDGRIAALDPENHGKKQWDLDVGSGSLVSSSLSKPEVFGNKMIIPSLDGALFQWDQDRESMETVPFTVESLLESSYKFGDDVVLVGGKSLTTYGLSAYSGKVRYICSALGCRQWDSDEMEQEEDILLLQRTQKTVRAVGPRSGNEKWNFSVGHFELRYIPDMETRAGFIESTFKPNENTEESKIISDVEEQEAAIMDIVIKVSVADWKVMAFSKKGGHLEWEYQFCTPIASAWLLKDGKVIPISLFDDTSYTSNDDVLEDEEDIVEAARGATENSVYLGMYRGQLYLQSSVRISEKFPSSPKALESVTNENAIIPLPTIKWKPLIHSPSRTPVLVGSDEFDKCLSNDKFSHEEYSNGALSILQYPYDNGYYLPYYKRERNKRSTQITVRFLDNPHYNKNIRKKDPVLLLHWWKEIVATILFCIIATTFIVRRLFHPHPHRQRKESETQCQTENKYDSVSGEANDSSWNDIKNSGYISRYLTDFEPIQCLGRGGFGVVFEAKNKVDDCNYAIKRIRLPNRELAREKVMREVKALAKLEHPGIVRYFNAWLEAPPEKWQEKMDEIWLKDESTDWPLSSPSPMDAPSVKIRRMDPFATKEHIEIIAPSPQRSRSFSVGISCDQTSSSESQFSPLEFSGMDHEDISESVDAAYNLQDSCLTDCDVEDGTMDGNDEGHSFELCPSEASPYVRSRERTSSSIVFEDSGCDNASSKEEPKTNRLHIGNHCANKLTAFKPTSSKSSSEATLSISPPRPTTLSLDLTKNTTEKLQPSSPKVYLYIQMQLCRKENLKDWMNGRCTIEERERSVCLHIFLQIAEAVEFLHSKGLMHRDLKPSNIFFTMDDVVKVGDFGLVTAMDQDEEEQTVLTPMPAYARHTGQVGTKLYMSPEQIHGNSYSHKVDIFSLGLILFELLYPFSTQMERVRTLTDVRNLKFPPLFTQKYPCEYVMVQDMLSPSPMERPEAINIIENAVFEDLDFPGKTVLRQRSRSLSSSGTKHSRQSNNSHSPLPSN

[10] = biological target: T3, Eukaryotic translation initiation factor 2-alpha kinase 3; test: Counterscreen assay for PERK inhibitors: Dose response cell-based high throughput screening assay to measure inhibition of PERK at 6 hours. [Related pubchem assays: 1522, 1416 ]; assay type: functional
[11] = biological target: Eukaryotic translation initiation factor 4H (Homo sapiens, UniProt Q15056); test: eIF4H binding inhibition – biochemical, uHTS, fluorescence polarization, translation initiation inhibitor project, primary screen (AID 2012)
[12] = biological target: Polyadenylate-binding protein 1 (Homo sapiens, UniProt P11940); test: blockers of PABP interaction with poly(A) – biochemical, fluorescence polarization, […] (AID 2014)
[13] = biological target: DNA dC->dU-editing enzyme APOBEC-3A (Homo sapiens, UniProt P31941); test: Dose Response confirmation of small molecule APOBEC3A DNA Deaminase Inhibitors via a fluorescence-based single-stranded DNA deaminase assay. [Related pubchem assays (depositor defined):AID493011, AID493024]; assay type: functional
[14] = biological target: DNA dC->dU-editing enzyme APOBEC-3G (Homo sapiens, UniProt Q9HC16); assay type: functional;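 further: Dose-response counterscreen measuring inhibition of APOBEC3G DNA deaminase activity, run while confirming APOBEC3A inhibitors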
[15] = mRNA 3' processing disruption, beta-gal signal increase – luminescence, S. cerevisiae SKY197-pL101, dose response (AID 2525); assay type: functional, cell-based
[16] = Luminescence Cell-Based Dose Confirmation HTS to Identify Inhibitors of Polyadenylation.; assay type: functional
Troponin, cardiac muscle = Troponin, cardiac muscle (Homo sapiens, UniProt P19429+P45379+P63316); test: Fluorescence-based biochemical high throughput dose response assay for activators of the calcium sensitivity of cardiac Regulated Thin Filaments (RTF). [Related pubchem assays (depositor defined):AID493008, AID493018, AID504382, AID504383]; assay type: protein-complex assay
[17] = viability loss in HeLa cells – cytotoxicity control for MgcRacGAP inhibitor project, dose response (AID 624300); assay type: functional
[18] = biological target: T4, Rac GTPase-activating protein 1 (Homo sapiens, UniProt Q9H0H5); test: blockers of MgcRacGAP-driven Rac1 GTP hydrolysis – biochemical, ADP Hunter fluorescence, primary and confirmatory, confirmation (AID 624330); assay type: functional
T4 sequence (Q9H0H5 whole entry): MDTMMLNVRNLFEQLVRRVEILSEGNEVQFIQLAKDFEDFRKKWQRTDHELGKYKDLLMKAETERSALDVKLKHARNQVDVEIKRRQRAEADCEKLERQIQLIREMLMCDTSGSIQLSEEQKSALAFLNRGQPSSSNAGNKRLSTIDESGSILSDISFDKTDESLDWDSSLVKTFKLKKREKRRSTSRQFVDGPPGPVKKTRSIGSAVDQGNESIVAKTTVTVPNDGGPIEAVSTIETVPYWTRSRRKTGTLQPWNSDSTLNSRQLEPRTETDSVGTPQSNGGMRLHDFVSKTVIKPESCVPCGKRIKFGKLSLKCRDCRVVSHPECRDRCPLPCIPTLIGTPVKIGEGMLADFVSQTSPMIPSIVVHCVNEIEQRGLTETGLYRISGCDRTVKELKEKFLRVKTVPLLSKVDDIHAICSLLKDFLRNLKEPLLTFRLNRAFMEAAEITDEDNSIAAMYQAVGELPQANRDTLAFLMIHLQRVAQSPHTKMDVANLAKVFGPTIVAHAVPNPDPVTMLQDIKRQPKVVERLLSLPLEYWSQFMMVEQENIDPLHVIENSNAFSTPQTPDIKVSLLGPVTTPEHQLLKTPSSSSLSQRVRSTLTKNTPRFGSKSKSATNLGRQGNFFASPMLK

Aspartyl aminopeptidase = Aspartyl aminopeptidase (Plasmodium falciparum 3D7, UniProt Q8I2J3)
Procathepsin L = Procathepsin L (Homo sapiens, UniProt P07711)
[19] = biological target: T5, Alkaline phosphatase, tissue-nonspecific isozyme (Homo sapiens, UniProt P05186)
T5 sequence (P05186 whole entry): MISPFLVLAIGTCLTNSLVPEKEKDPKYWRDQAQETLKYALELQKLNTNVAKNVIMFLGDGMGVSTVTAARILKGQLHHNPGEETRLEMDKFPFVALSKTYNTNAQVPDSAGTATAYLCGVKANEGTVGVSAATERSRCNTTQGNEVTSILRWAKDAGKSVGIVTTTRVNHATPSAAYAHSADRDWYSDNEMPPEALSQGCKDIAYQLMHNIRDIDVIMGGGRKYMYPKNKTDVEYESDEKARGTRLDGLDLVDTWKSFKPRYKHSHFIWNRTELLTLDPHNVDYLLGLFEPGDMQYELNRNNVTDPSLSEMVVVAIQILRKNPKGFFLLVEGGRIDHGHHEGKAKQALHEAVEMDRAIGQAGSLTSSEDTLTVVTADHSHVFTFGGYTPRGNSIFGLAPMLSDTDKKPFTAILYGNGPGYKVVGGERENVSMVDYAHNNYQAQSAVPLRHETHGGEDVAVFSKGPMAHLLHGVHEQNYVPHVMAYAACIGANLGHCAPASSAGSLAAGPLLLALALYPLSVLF

- AC50 (Cytochrome P450 2D6): 7.94 µM (inconclusive)
Compound: CC12C=C(/C=C/c3ccc(Br)cc3)C(C)(C1)C(c1ccc(Br)cc1)CC2=O (centres undefined)

- EC50 [5]: > 50 µM (not active)
- AC50 [6]: > 20 µM (inactive)
Compound: CCN(CC)CCCNC(=O)c1cc(-c2cccc(Cl)c2)on1

- IC50 [7]: > 39.8 µM (not active)
- IC50 [8]: 13.7 µM (not active)
Compound: COc1cccc2cc(C(=O)C3=C(O)C(=O)N(CCN4CCOCC4)C3c3cccs3)oc12 (centres undefined)

- IC50 (Aspartyl aminopeptidase): 2.17 µM (active)
- IC50 (Procathepsin L): > 59.6 µM (not active)
Compound: O=C(Nn1cnnc1)c1csc2ccccc12

Second part, the compound before the results:

Compound: CC1=C(C#N)C(=O)N(C2CCS(=O)(=O)C2)C(=O)/C1=C\c1ccco1 (centres undefined)
- IC50 [1]: > 55.7 µM (not active)
- IC50 [2]: > 56.8 µM (not active)
- IC50 (Large T antigen): 7.93 µM (active)
- IC50 [3]: 142 nM (active)
- IC50 [4]: 4.68 µM (active)

Compound: CC(=O)c1ccc(S(=O)(=O)N2CCN(CC#N)CC2)cc1
- EC50 [9]: > 55.7 µM (not active)
- EC50 [10]: > 55.7 µM (not active)

Compound: COCCN1C(NCCCOC(C)C)=N[C@@H](c2ccccc2)C(C(=O)OC)=C1C
- IC50 [11]: > 100 µM (inactive)
- IC50 [12]: 8.01 µM (active)
- IC50 [13]: 5.67 µM (active)
- IC50 [14]: 4.32 µM (active)

Compound: CCOc1cc(/C=C2\N=C(SC(C)C(N)=O)N(c3ccc(OC(F)F)cc3)C2=O)ccc1O (centres undefined)
- EC50 [15]: 19.4 µM (active)
- EC50 [16]: 10.7 µM (active)
- EC50 (Troponin, cardiac muscle): 8.42 µM (active)
- CC50 [17]: 51.2 µM (active)
- IC50 [18]: 91.2 µM (active)

Compound: Fc1ccccc1N1CC(c2ccccc2)C(c2cccs2)=N1 (centres undefined)
- EC50 [19]: > 100 µM (not active)
